Assay results: PubChem BioAssay (NCI)
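Tested at 5 concentrations; 48 h exposure; 96-well plates; endpoints linearly interpolated, else capped at highest concentration. Abbreviation: GI50, concentration required for 50% inhibition of growth. At the TGI there is no net growth.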

Assays:
Experiment in all cases: inhibition of tumour cell growth, NCI panel, 48 h
HOP-62 NSCLC = tested on: HOP-62 NSCLC
SN12C renal = tested on: SN12C renal
MCF7 breast = tested on: MCF7 breast
MOLT-4 leukemia = tested on: MOLT-4 leukemia
786-0 renal = tested on: 786-0 renal
T-47D breast = tested on: T-47D breast
SF-539 CNS = tested on: SF-539 CNS
MALME-3M melanoma = tested on: MALME-3M melanoma
SW-620 colon = tested on: SW-620 colon
SF-295 CNS = tested on: SF-295 CNS
MDA-MB-435 = tested on: MDA-MB-435
M14 melanoma = tested on: M14 melanoma
ACHN renal = tested on: ACHN renal
SK-MEL-28 melanoma = tested on: SK-MEL-28 melanoma
OVCAR-4 ovarian = tested on: OVCAR-4 ovarian
NCI-H460 lung = tested on: NCI-H460 lung
OVCAR-5 ovarian = tested on: OVCAR-5 ovarian
UO-31 renal = tested on: UO-31 renal
OVCAR-3 ovarian = tested on: OVCAR-3 ovarian
UACC-62 melanoma = tested on: UACC-62 melanoma
HCC-2998 colon = tested on: HCC-2998 colon
LOX IMVI melanoma = tested on: LOX IMVI melanoma
NCI-H23 lung = tested on: NCI-H23 lung
HL-60(TB) leukemia = tested on: HL-60(TB) leukemia
SF-268 CNS = tested on: SF-268 CNS
TK-10 renal = tested on: TK-10 renal
KM12 colon = tested on: KM12 colon
UACC-257 melanoma = tested on: UACC-257 melanoma
CAKI-1 renal = tested on: CAKI-1 renal

Compound: CC([C@H]1CCC2C3CCC4C[C@@H](NC=O)CC[C@]4(C)C3CC[C@@]21C)N(C)C (some centres not stated)
- TGI (HOP-62 NSCLC): 5.19 µM
- GI50 (SN12C renal): 2.88 µM
- TGI (SN12C renal): 13.7 µM
- GI50 (MCF7 breast): 2.06 µM
- TGI (MCF7 breast): 7.26 µM
- GI50 (MOLT-4 leukemia): 1.84 µM
- TGI (MOLT-4 leukemia): 8.71 µM
- GI50 (786-0 renal): 1.99 µM
- TGI (786-0 renal): 4.15 µM
- GI50 (T-47D breast): 1.76 µM
- TGI (T-47D breast): 5.94 µM
- GI50 (SF-539 CNS): 1.37 µM
- TGI (SF-539 CNS): 2.79 µM
- GI50 (MALME-3M melanoma): 2.18 µM
- TGI (MALME-3M melanoma): 4.83 µM
- GI50 (SW-620 colon): 1.85 µM
- TGI (SW-620 colon): 3.95 µM
- GI50 (SF-295 CNS): 2.14 µM
- TGI (SF-295 CNS): 5.58 µM
- GI50 (MDA-MB-435): 2.29 µM
- TGI (MDA-MB-435): 5.86 µM
- GI50 (M14 melanoma): 1.87 µM
- TGI (M14 melanoma): 3.55 µM
- GI50 (ACHN renal): 5.17 µM
- TGI (ACHN renal): 18 µM
- GI50 (SK-MEL-28 melanoma): 1.65 µM
- TGI (SK-MEL-28 melanoma): 3.08 µM
- GI50 (OVCAR-4 ovarian): 4.72 µM
- TGI (OVCAR-4 ovarian): 23.1 µM
- GI50 (NCI-H460 lung): 1.89 µM
- TGI (NCI-H460 lung): 4.04 µM
- GI50 (OVCAR-5 ovarian): 6.87 µM
- TGI (OVCAR-5 ovarian): 19.3 µM
- GI50 (UO-31 renal): 1.49 µM
- TGI (UO-31 renal): 3.12 µM
- GI50 (OVCAR-3 ovarian): 2.55 µM
- TGI (OVCAR-3 ovarian): 9.01 µM
- GI50 (UACC-62 melanoma): 2.04 µM
- TGI (UACC-62 melanoma): 4.08 µM
- GI50 (HCC-2998 colon): 2.48 µM
- TGI (HCC-2998 colon): 7.29 µM
- GI50 (LOX IMVI melanoma): 1.53 µM
- TGI (LOX IMVI melanoma): 3.37 µM
- GI50 (NCI-H23 lung): 4.73 µM
- TGI (NCI-H23 lung): 19 µM
- GI50 (HL-60(TB) leukemia): 2.23 µM
- TGI (HL-60(TB) leukemia): 6.79 µM
- GI50 (SF-268 CNS): 1.7 µM
- TGI (SF-268 CNS): 3.93 µM
- GI50 (TK-10 renal): 10.1 µM
- TGI (TK-10 renal): 24.7 µM
- GI50 (KM12 colon): 3.14 µM
- TGI (KM12 colon): 12.6 µM
- GI50 (UACC-257 melanoma): 2.57 µM
- TGI (UACC-257 melanoma): 6.24 µM
- GI50 (CAKI-1 renal): 4.26 µM
- TGI (CAKI-1 renal): 11.9 µM
